# According to paper doi:10.1101/2023.10.24.563163v2, “Targeting cancer with small molecule pan-KRAS degraders” (biorxiv, 2024):
# Read-outs that look alike come from different tables or passages of the source.
# Assays:
# A375 [1] = experiment: cells; set-up: Inhibition of cell proliferation, 5 days; conditions: Homo sapiens, A-375, 120 h; read-out: IC50 Proliferation A375
# Excerpt: (§1) Next, we set out to test the ability of a single pan-KRAS degrading molecule, compound 4, to selectively suppress oncogenic signaling and proliferation in cancer cell lines driven by diverse KRAS mutants. To this end, we first confirmed degradation of KRAS by compound 4 in KRAS-dependent (GP2d, SW620 and NCI-H358 expressing KRAS^G12D, - G12V or -G12C, respectively) as well as in KRAS independent (A-375, HEK293) cell lines (Fig. 3A, fig. S4A). […] Both inhibition and degradation repressed the established markers of MAPK signaling pERK (fig. S4B-D) and DUSP6 (Fig. 3B, fig. S4E) in KRAS dependent cell lines. […] Neither degradation nor inhibition had appreciable antiproliferative effects in the KRAS independent cell lines A-375 and HEK293 (Fig. 3C, fig. S4F). […] Pan-KRAS degradation impacts MAPK signaling and cancer cell proliferation.
# GP2d [2] = experiment: cells; set-up: Inhibition of cell proliferation, 5 days; conditions: 120 h, read-out: IC50 Proliferation GP2d
# Excerpt: as §1
# HEK293 [3] = experiment: cells; set-up: Inhibition of cell proliferation, 5 days; conditions: Homo sapiens, HEK293, 120 h; read-out: IC50 Proliferation HEK293
# Excerpt: as §1
# NCI-H358 [4] = experiment: cells; set-up: Inhibition of cell proliferation, 5 days; conditions: Homo sapiens, NCI-H358, 120 h; read-out: IC50 Proliferation NCI-H358
# Excerpt: as §1
# SW620 [5] = experiment: cells; set-up: Inhibition of cell proliferation, 5 days; conditions: Homo sapiens, SW-620, 120 h; read-out: IC50 Proliferation SW620
# Excerpt: as §1
# KRAS = biological target: T1, KRAS (Homo sapiens, UniProt P01116, C118S/G12V); experiment: SPR, biotinylated KRAS immobilised; assay type: binding
# T1 construct: residues 1-169, C118S background; His6 tag removed, E. coli; biotinylated for SPR
# T1 sequence (P01116 1-169 G12V/C118S): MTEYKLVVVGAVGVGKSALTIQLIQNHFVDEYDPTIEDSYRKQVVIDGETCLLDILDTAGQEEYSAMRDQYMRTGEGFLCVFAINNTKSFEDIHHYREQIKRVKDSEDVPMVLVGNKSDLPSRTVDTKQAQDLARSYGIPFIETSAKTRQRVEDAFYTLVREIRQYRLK
# NCI-H358 [6] = experiment: cells; set-up: DUSP6 modulation; conditions: Homo sapiens, NCI-H358, 6 h; read-out: IC50 DUSP6
# Excerpt: (§2) Next, we set out to test the ability of a single pan-KRAS degrading molecule, compound 4, to selectively suppress oncogenic signaling and proliferation in cancer cell lines driven by diverse KRAS mutants. To this end, we first confirmed degradation of KRAS by compound 4 in KRAS-dependent (GP2d, SW620 and NCI-H358 expressing KRAS^G12D, - G12V or -G12C, respectively) as well as in KRAS independent (A-375, HEK293) cell lines (Fig. 3A, fig. S4A). […] Both inhibition and degradation repressed the established markers of MAPK signaling pERK (fig. S4B-D) and DUSP6 (Fig. 3B, fig. S4E) in KRAS dependent cell lines. […] Neither degradation nor inhibition had appreciable antiproliferative effects in the KRAS independent cell lines A-375 and HEK293 (Fig. 3C, fig. S4F).
# NCI-H358 [7] = experiment: cells; set-up: pERK levels by capillary electrophoresis; conditions: Homo sapiens, NCI-H358, 6 h
# Procedure: (§3) Protein Detection by Capillary Electrophoresis Cells (50 000) were seeded the day before treatment into 96-well clear-flat bottom plates and incubated overnight (37 °C, humidified tissue culture incubator, 5% CO2). Compounds were added from DMSO stock solution using a digital dispenser and cells are incubated at 37 °C as specified (24 hours for KRAS degradation, 6 hours for determination of pERK levels). At the end of the incubation, medium was removed, cells washed with ice cold PBS, PBS removed and 50 µL lysis buffer (Meso Scale Discovery #R60TX-2) supplemented with 1:100 protease inhibitor solution, 1:100 phosphatase inhibitor I, 1:100 phosphatase inhibitor II (Meso Scale Discovery #R70AA-1), 0.5 µL/mL Benzonase (Novagen #70664-3) and 10 mM dithiothreitol added to each well. Plates with lysis buffer were immediately transferred to -80 °C freezer for at least 2 hours and then thawed on ice. Lysates were transferred to a 96 well V-bottom plate and insoluble debris was pelleted by centrifugation for 20 min. at 4 000 rpm. 40 µL of the supernatant were transferred to a fresh Eppendorf PCR plate. Analysis of protein levels was conducted using the Wes System, ProteinSimple (https://www.bio-techne.com/) as specified by the manufacturer. Briefly, Wes Master Mix (12-230 kDa WES Separation Module, 8 × 25 capillary cartridges, ProteinSimple #SM-W004) and molecular weight markers were prepared as specified in the manufacturer’s recommendations. To detect primary antibodies, anti-rabbit (Protein Simple #DM-001) or anti-mouse (Protein Simple #DM-002) detection modules were used. 7.2 µL lysate + 1.8 µL master mix were combined and heated to 95 °C for 5 min. Th
# GP2d [8] = experiment: cells; set-up: DUSP6 modulation; conditions: GP2d, 6 h; read-out: IC50 DUSP6
# Excerpt: as §2
# SW620 [9] = experiment: cells; set-up: DUSP6 modulation; conditions: Homo sapiens, SW-620, 6 h; read-out: IC50 DUSP6
# Excerpt: as §2
# KRAS^G12D = KRAS^G12D (Homo sapiens, UniProt P01116, G12D); experiment: cell-based; set-up: endogenous; KRAS degradation by capillary electrophoresis immunodetection; conditions: GP2d; read-out: Dmax 24 h GP2d [%]
# Chain of KRAS^G12D (P01116 whole entry G12D): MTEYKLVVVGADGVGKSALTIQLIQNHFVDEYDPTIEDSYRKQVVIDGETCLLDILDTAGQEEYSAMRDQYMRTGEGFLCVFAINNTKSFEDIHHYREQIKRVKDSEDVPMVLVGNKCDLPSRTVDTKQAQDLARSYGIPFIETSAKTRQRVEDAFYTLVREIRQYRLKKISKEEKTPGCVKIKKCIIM
# Procedure: as §3, with “[…] Next, we set out to test the ability of a single pan-KRAS degrading molecule, compound 4, to selectively suppress oncogenic signaling and proliferation in cancer cell lines driven by diverse KRAS mutants. To this end, we first confirmed degradation of KRAS by compound 4 in KRAS-dependent (GP2d, SW620 and NCI-H358 expressing KRAS^G12D, - G12V or -G12C, respectively) as well as in KRAS independent (A-375, HEK293) cell lines (Fig. 3A, fig. S4A). […] Both inhibition and degradation repressed the established markers of MAPK signaling pERK (fig. S4B-D) and DUSP6 (Fig. 3B, fig. S4E) in KRAS dependent cell lines. […] Neither degradation nor inhibition had appreciable antiproliferative effects in the KRAS independent cell lines A-375 and HEK293 (Fig. 3C, fig. S4F).” for “Th”
# KRAS^G12V = KRAS^G12V (Homo sapiens, UniProt P01116, G12V); experiment: cell-based; set-up: endogenous; KRAS degradation by capillary electrophoresis immunodetection; conditions: SW-620; read-out: Dmax 24 h SW620 [%]
# Chain of KRAS^G12V (P01116 whole entry G12V): as the sequence (P01116 whole entry G12D) above, with D12V counted along it
# Procedure: as §3, with “[…] Next, we set out to test the ability of a single pan-KRAS degrading molecule, compound 4, to selectively suppress oncogenic signaling and proliferation in cancer cell lines driven by diverse KRAS mutants. To this end, we first confirmed degradation of KRAS by compound 4 in KRAS-dependent (GP2d, SW620 and NCI-H358 expressing KRAS^G12D, - G12V or -G12C, respectively) as well as in KRAS independent (A-375, HEK293) cell lines (Fig. 3A, fig. S4A). […] Both inhibition and degradation repressed the established markers of MAPK signaling pERK (fig. S4B-D) and DUSP6 (Fig. 3B, fig. S4E) in KRAS dependent cell lines. […] Neither degradation nor inhibition had appreciable antiproliferative effects in the KRAS independent cell lines A-375 and HEK293 (Fig. 3C, fig. S4F).” for “Th”
# KRAS^WT = biological target: T2, KRAS^WT (Homo sapiens, UniProt P01116); experiment: cell-based; set-up: KRAS degradation by capillary electrophoresis immunodetection; conditions: A-375; read-out: Dmax 24 h A375 [%]
# T2 construct: endogenous wild type
# T2 sequence (P01116 whole entry): as the sequence (P01116 whole entry G12D) above, with D12G counted along it
# Procedure: as §3, with “[…] Next, we set out to test the ability of a single pan-KRAS degrading molecule, compound 4, to selectively suppress oncogenic signaling and proliferation in cancer cell lines driven by diverse KRAS mutants. To this end, we first confirmed degradation of KRAS by compound 4 in KRAS-dependent (GP2d, SW620 and NCI-H358 expressing KRAS^G12D, - G12V or -G12C, respectively) as well as in KRAS independent (A-375, HEK293) cell lines (Fig. 3A, fig. S4A). […] Both inhibition and degradation repressed the established markers of MAPK signaling pERK (fig. S4B-D) and DUSP6 (Fig. 3B, fig. S4E) in KRAS dependent cell lines. […] Neither degradation nor inhibition had appreciable antiproliferative effects in the KRAS independent cell lines A-375 and HEK293 (Fig. 3C, fig. S4F).” for “Th”
# A375 [10] = experiment: cells; set-up: pERK levels by capillary electrophoresis; conditions: Homo sapiens, A-375, 6 h
# Procedure: as §3
# GP2d [11] = experiment: cells; set-up: pERK levels by capillary electrophoresis; conditions: GP2d, 6 h
# Procedure: as §3
# HEK293 [12] = experiment: cells; set-up: pERK levels by capillary electrophoresis; conditions: Homo sapiens, HEK293, 6 h
# Procedure: as §3
# SW620 [13] = experiment: cells; set-up: pERK levels by capillary electrophoresis; conditions: Homo sapiens, SW-620, 6 h
# Procedure: as §3
smiles,measurement,setting,value
C[C@H](Oc1ccnc(-c2noc([C@@]3(C)CCCc4sc(N)c(C#N)c43)n2)n1)[C@@H]1CCCN1C [BI-2865],IC50,A375 [1],> 1000 nM
same,IC50,GP2d [2],251 nM
same,IC50,HEK293 [3],> 1000 nM
same,IC50,NCI-H358 [4],613 nM
same,IC50,SW620 [5],208 nM
C[C@H]1CNCCCN1c1nccc(-c2noc([C@@]3(C)CCCc4sc(N)c(C#N)c43)n2)n1 [compound 1],Kd,KRAS,25 nM
C=CC(=O)N1CCN(c2nc(=O)n(-c3c(C)ccnc3C(C)C)c3nc(-c4c(O)cccc4F)c(F)cc23)[C@@H](C)C1 [sotorasib],IC50,NCI-H358 [6],5.6 nM
same,IC50,NCI-H358 [4],12.3 nM
same,IC50,NCI-H358 [7],29 nM
C#Cc1c(F)ccc2cc(O)cc(-c3ncc4c(N5C[C@H]6CC[C@@H](C5)N6)nc(OC[C@@]56CCCN5C[C@H](F)C6)nc4c3F)c12 [MRTX1133],IC50,GP2d [8],0.1 nM
same,IC50,SW620 [9],310 nM
same,Dmax,KRAS^G12D,< 15%
same,Dmax,KRAS^G12V,< 15%
same,Dmax,KRAS^WT,< 15%
same,IC50,GP2d [2],2.4 nM
same,IC50,A375 [10],> 1000 nM
same,IC50,GP2d [11],1.3 nM
same,IC50,HEK293 [12],> 1000 nM
same,IC50,SW620 [13],> 1000 nM
